According to patent US10669272B2, “Substituted naphthyridinone compounds useful as T cell activators” (BRISTOL-MYERS SQUIBB COMPANY, priority 2018, dated 2020):
Read-outs that look alike come from different tables or passages of the source.

Legend:
human DGKζ = molecular target: T1, human DGKζ (Homo sapiens, UniProt Q13574); experiment: DGKζ LIPGLO assay (extruded liposome substrate), in vitro DGK inhibition; assay type: biochemical; conditions: read-out: DGKz LIPGLO IC50
T1 construct: TVMV protease cleavage site (C); Hexa-His (C); made in house; host or cells: Sf9 insect cells (baculovirus, Bac-to-Bac)

Human venous whole blood = experiment: Human whole blood IFN-γ assay; assay type: cell-based; conditions: human whole blood, read-out: INFg Whole Blood Normalized Agonist EC50;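 also: blood from healthy donors exposed to compound for 1 h before stimulation with anti-CD3 and anti-CD28 at 1 µg/mL each, IFN-γ quantified in supernatant by AlphaLISA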
human DGKα = molecular target: T2, human DGKα (Homo sapiens, UniProt P23743); experiment: DGKα LIPGLO assay (extruded liposome substrate), in vitro DGK inhibition; assay type: biochemical
T2 construct: TVMV protease cleavage site (C); Hexa-His (C); made in house; host or cells: Sf9 insect cells (baculovirus, Bac-to-Bac)

[1] = Homo sapiens, 24 h, anti-CD3 plus anti-CD28, 24 hours, 3 μM reference compound = 100% activation
[2] = DGKα liposome (LIPGLO) assay, read-out: DGKa LIPGLO IC50
[3] = Homo sapiens, 24 h, normalized to 3 μM reference compound with anti-CD3 plus anti-CD28 as 100% activation
[4] = liposome (LIPGLO) assay, read-out: DGKa LIPGLO IC50
[5] = normalized to 3 μM reference compound with anti-CD3 plus anti-CD28 as 100% activation
[6] = anti-CD3 plus anti-CD28, 24 hours, 3 μM reference compound = 100% activation

T2 sequence (P23743 with tags, fused parts or gaps): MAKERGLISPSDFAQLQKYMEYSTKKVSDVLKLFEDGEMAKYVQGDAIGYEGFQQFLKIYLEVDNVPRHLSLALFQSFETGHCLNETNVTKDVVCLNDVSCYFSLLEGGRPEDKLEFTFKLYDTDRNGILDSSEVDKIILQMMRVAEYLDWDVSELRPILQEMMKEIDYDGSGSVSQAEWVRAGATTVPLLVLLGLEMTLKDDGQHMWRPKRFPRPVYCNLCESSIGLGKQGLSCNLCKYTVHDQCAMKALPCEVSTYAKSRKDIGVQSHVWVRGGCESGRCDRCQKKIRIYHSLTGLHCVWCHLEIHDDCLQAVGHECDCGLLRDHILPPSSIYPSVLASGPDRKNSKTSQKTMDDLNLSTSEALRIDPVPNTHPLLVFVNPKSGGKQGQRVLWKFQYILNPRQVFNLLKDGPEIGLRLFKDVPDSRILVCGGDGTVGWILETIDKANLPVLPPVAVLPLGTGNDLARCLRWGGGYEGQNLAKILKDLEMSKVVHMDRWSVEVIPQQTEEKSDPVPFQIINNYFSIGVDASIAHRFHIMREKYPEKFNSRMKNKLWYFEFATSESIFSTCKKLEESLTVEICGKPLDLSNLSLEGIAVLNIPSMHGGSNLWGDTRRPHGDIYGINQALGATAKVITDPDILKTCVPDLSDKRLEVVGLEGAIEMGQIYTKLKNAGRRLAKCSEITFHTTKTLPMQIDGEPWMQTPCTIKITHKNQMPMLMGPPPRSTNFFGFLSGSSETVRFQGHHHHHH
T1 sequence (Q13574 with tags, fused parts or gaps isoform Q13574-4): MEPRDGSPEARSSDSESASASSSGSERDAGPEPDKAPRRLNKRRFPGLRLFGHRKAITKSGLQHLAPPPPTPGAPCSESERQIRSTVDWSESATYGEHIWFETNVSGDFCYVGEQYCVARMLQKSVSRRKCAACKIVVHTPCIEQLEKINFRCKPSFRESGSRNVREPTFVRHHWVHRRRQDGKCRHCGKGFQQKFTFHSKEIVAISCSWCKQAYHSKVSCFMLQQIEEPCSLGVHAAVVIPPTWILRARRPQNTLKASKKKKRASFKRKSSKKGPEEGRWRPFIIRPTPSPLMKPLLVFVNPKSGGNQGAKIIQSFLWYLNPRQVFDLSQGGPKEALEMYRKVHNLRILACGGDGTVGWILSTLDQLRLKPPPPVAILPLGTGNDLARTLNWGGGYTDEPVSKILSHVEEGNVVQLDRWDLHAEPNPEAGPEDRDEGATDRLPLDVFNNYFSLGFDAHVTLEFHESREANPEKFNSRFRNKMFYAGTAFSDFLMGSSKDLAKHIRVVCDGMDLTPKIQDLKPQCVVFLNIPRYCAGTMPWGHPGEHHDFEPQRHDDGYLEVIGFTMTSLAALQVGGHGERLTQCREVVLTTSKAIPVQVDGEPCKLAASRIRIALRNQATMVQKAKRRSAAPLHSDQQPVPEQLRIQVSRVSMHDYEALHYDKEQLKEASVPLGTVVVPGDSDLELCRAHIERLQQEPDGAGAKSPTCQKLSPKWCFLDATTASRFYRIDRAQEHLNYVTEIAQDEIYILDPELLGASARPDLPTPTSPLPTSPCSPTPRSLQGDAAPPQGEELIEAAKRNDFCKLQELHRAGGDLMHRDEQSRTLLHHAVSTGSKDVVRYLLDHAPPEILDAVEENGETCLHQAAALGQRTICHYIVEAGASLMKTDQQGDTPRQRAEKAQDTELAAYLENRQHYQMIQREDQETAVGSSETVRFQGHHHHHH

Row | Structure (SMILES) | IC50 (human DGKζ; DGKζ liposome (LIPGLO) assay) [nM] | IC50 (human DGKα; [2]) [nM] | IC50 (human DGKζ; liposome (LIPGLO) assay) [nM] | IC50 (human DGKα; [4]) [nM] | EC50 (Human venous whole blood; [3]) [nM] | further results
1 | C[C@@H]1CN(c2c(C#N)c(=O)n(C)c3ccc(C#N)nc23)CCN1Cc1ccc(Cl)c(Cl)c1 [Example 996] | 5800 | 4100 | – | – | – | EC50 (Human venous whole blood; [1]): 20000 nM
2 | C[C@@H]1CN(c2cc(=O)n(C)c3ccc(C#N)nc23)[C@@H](C)CN1Cc1ccc(C2(C#N)CC2)cc1 [Example 567] | – | – | 18000 | 2800 | 20000 | –
3 | CCc1ccccc1C(c1ccc(F)cc1)N1C[C@H](C)N(c2c(C#N)c(=O)n(C)c3ccc(C#N)nc23)C[C@H]1C (single isomer, unassigned) [Example 809] | 2300 | 140000 | – | – | – | EC50 (Human venous whole blood; [1]): 20000 nM
4 | C[C@@H]1CN(c2cc(=O)n(C)c3ccc(C#N)nc23)[C@@H](C)CN1C(c1ccc(F)cc1)c1nc(C(F)F)no1 (stereo partly drawn) [Example 743] | 1600 | 120 | – | – | – | EC50 (Human venous whole blood; [1]): 420 nM
5 | CC(c1ccc(F)cc1)N1C[C@H](C)N(c2c(C#N)c(=O)n(C)c3ccc(C#N)nc23)C[C@H]1C (single isomer, unassigned) [Example 782] | 3400 | 180 | – | – | – | EC50 (Human venous whole blood; [1]): 1100 nM
6 | CC(C)Oc1ccc(C(c2cccc(F)c2)N2C[C@H](C)N(c3cc(=O)n(C)c4ccc(C#N)nc34)C[C@H]2C)nc1 (stereo partly drawn) [Example 691] | – | – | 560 | 4500 | – | EC50 (Human venous whole blood; [5]): 2700 nM
7 | CC1CN(C(c2ccc(F)cc2)c2nc(C(C)(C)C)no2)C(C)CN1c1c(C#N)c(=O)n(C)c2ccc(C#N)nc12 (single isomer, unassigned) [Example 863] | 190 | 530 | – | – | – | EC50 (Human venous whole blood; [6]): 720 nM
8 | C[C@@H]1CN(c2c(C#N)c(=O)n(C)c3ccc(C#N)nc23)CCN1C(c1ccccc1)c1ccc(F)cc1 (single isomer, unassigned) [Example 879] | 1100 | 600 | – | – | – | EC50 (Human venous whole blood; [6]): 1200 nM
9 | C[C@@H]1CN(c2cc(=O)n(C)c3ccc(C#N)nc23)[C@@H](C)CN1Cc1cccc2c1ccn2C [Example 606] | – | – | 66 | 5200 | 1100 | –
10 | COc1ccc(OC(F)(F)F)cc1CN1C[C@H](C)N(c2cc(=O)n(C)c3ccc(C#N)nc23)C[C@H]1C [Example 601] | – | – | 7700 | 2100 | 3300 | –
11 | CC[C@@H]1CN(c2cc(=O)n(C)c3ccc(C#N)nc23)[C@@H](CC)CN1Cc1ccc(F)cc1F [Example 1062] | – | – | 76 | 58 | 110 | –
12 | CC(c1cccc(C(F)(F)F)n1)N1C[C@H](C)N(c2cc(=O)n(C)c3ccc(C#N)nc23)C[C@H]1C (single isomer, unassigned) [Example 636] | – | – | 8000 | 12000 | – | EC50 (Human venous whole blood; [5]): 3900 nM
13 | CC[C@@H]1CN(c2cc(=O)n(C)c3ccc(C#N)nc23)[C@@H](C)CN1C(c1ccc(OC(F)(F)F)cc1)c1ccccn1 (single isomer, unassigned) [Example 340] | – | – | 220 | 320 | 80 | –
14 | C[C@@H]1CN(c2c(C#N)c(=O)n(C)c3ccc(C#N)nc23)CCN1C(c1ccc(F)cc1)c1cncn1C (single isomer, unassigned) [Example 1019] | 5900 | 32000 | – | – | – | EC50 (Human venous whole blood; [6]): 20000 nM
15 | CC(C)c1nnc(C(c2ccc(F)cc2)N2C[C@H](C)N(c3cc(=O)n(C)c4ccc(C#N)nc34)C[C@H]2C)s1 (single isomer, unassigned) [Example 772] | 27 | 4.7 | – | – | – | EC50 (Human venous whole blood; [6]): 1400 nM
16 | CC[C@H]1CN(C(c2ccc(F)cc2)c2ccon2)[C@H](CC)CN1c1cc(=O)n(C)c2ccc(C#N)nc12 (single isomer, unassigned) [Example 1072] | – | – | 750 | 100 | – | EC50 (Human venous whole blood; [5]): 770 nM
17 | C[C@@H]1CN(c2c(C#N)c(=O)n(C)c3ccc(C#N)nc23)[C@@H](C)CN1C(c1ccccc1)c1ccc(Cl)cc1 (stereo partly drawn) [Example 834] | 6000 | 22000 | – | – | – | EC50 (Human venous whole blood; [6]): 3600 nM
18 | COc1ccc(C(C)N2C[C@H](C)N(c3c(C#N)c(=O)n(C)c4ccc(C#N)nc34)C[C@H]2C)nc1 (single isomer, unassigned) [Example 800] | 330 | 380 | – | – | – | EC50 (Human venous whole blood; [6]): 5900 nM
19 | Cc1cc(C)cc(CN2CCN(c3c(C#N)c(=O)n(C)c4ccc(C#N)nc34)C[C@H]2C)c1 [Example 1000] | 6200 | 2700 | – | – | – | EC50 (Human venous whole blood; [1]): 4000 nM
20 | CC[C@@H]1CN(c2cc(=O)n(C)c3ccc(C#N)nc23)[C@@H](C)CN1C(c1ccc(F)cc1)c1ccnc(C)n1 (stereo partly drawn) [Example 419, 8-((2S,5R)-5-ethyl-4-((4-fluorophenyl)(2-methylpyrimidin-4-yl)methyl)-2-methylpiperazin-1-yl)-5-methyl-6-oxo-5,6-dihydro-1,5-naphthyridine-2-carbonitrile] | – | – | 340 | 950 | – | EC50 (Human venous whole blood; [5]): 960 nM
21 | C[C@@H]1CN(c2c(C#N)c(=O)n(C)c3ccc(C#N)nc23)[C@@H](C)CN1C(c1ccc(F)cc1)c1cc(C(C)(C)C)on1 (single isomer, unassigned) [Example 866] | 940 | 390 | – | – | – | EC50 (Human venous whole blood; [6]): 2300 nM
22 | CC(c1ccc(Cl)cc1)N1C[C@H](C)N(c2c(C#N)c(=O)n(C)c3ccc(C#N)nc23)C[C@H]1C (single isomer, unassigned) [Example 791] | 5700 | – | – | – | – | EC50 (Human venous whole blood; [6]): 1300 nM; IC50 (human DGKα; DGKa LIPGLO IC50, DGKα liposome (LIPGLO) assay): 1900 nM
23 | C[C@@H]1CN(c2cc(=O)n(C)c3ccc(C#N)nc23)[C@@H](C)CN1C(c1c(F)cc(O)cc1F)C(F)(F)F (single isomer, unassigned) [Example 627] | – | – | 5900 | 5400 | 5100 | –
24 | CC[C@@H]1CN(c2cc(=O)n(C)c3ccc(C#N)nc23)[C@@H](C)CN1Cc1ccc(F)cc1 [Example 1079] | – | – | 89 | 28 | 650 | –
25 | CCc1ccc(C(c2ccc(F)cc2)N2C[C@H](C)N(c3c(C#N)c(=O)n(C)c4ccc(C#N)nc34)C[C@H]2C)cc1 (single isomer, unassigned) [Example 812] | 510 | 17000 | – | – | – | EC50 (Human venous whole blood; [6]): 2800 nM
26 | C[C@@H]1CN(c2c(C#N)c(=O)n(C)c3ccc(C#N)nc23)CCN1C(c1ccc(F)cc1)c1cn(C)cn1 (single isomer, unassigned) [Example 1027] | – | – | 2200 | 29000 | – | EC50 (Human venous whole blood; [5]): 7300 nM
27 | C[C@@H]1CN(c2cc(=O)n(C)c3ccc(C#N)nc23)[C@@H](C)CN1C(c1ccc(F)cc1)c1cscn1 (stereo partly drawn) [Example 722] | 560 | 120 | – | – | – | EC50 (Human venous whole blood; [6]): 840 nM

Continued, in another order:

Row | IC50 (human DGKζ; DGKζ liposome (LIPGLO) assay) [nM] | IC50 (human DGKα; [2]) [nM] | IC50 (human DGKζ; liposome (LIPGLO) assay) [nM] | IC50 (human DGKα; [4]) [nM] | Structure (SMILES) | EC50 (Human venous whole blood; [3]) [nM] | further results
28 | – | – | 13000 | 4600 | C[C@@H]1CN(c2cc(=O)n(C)c3ccc(C#N)nc23)[C@@H](C)CN1C(c1ccc(F)cc1)C(C)(C)O (single isomer, unassigned) [Example 1309] | – | EC50 (Human venous whole blood; [5]): 7900 nM
29 | – | – | 2400 | 680 | CC[C@H]1CN(C(c2ccc(F)cc2)c2ccc(Cl)cc2)[C@H](C)CN1c1cc(=O)n(C)c2ccc(C#N)nc12 (stereo partly drawn) [Example 1127] | 520 | –
30 | – | – | 160 | 370 | C[C@@H]1CN(c2cc(=O)n(C)c3ccc(C#N)nc23)[C@@H](C)CN1C(c1ccc(F)cc1)c1csc(C(F)(F)F)n1 (single isomer, unassigned) [Example 1333] | 310 | –
31 | – | – | 680 | 1500 | CC[C@@H]1CN(c2cc(=O)n(C)c3ccc(C#N)nc23)[C@@H](C)CN1Cc1ccc(OC(F)(F)F)cc1OC [Example 1081] | 250 | –
32 | – | – | 30 | 660 | COc1cc(F)c(C(C)N2C[C@H](C)N(c3cc(=O)n(C)c4ccc(C#N)nc34)C[C@H]2C)cc1F (stereo partly drawn) [Example 1244] | 120 | –
33 | – | – | 2800 | 2500 | C[C@@H]1CN(c2cc(=O)n(C)c3ccc(C#N)nc23)[C@@H](C)CN1Cc1noc2ccccc12 [Example 1433] | 13000 | –
34 | – | – | 16 | 4.4 | CC[C@@H]1CN(c2cc(=O)n(C)c3ccc(C#N)nc23)[C@@H](C)CN1C(C)c1ccc(OC(F)F)cc1 (stereo partly drawn) [Example 1343] | 51 | –
35 | – | – | 62000 | 67000 | CC(c1ccc(OC(F)(F)F)cc1)N1C[C@H](C)N(c2cc(=O)n(C)c3ccc(C#N)nc23)C[C@H]1CN1CCN(C)CC1 (stereo partly drawn) [Example 1418] | – | EC50 (Human venous whole blood; [5]): 20000 nM
36 | – | – | 470 | 120 | CC(c1ccc(OC(F)(F)F)c(F)c1)N1C[C@H](C)N(c2cc(=O)n(C)c3ccc(C#N)nc23)C[C@H]1C (single isomer, unassigned) [Example 1204] | – | EC50 (Human venous whole blood; [5]): 540 nM
37 | – | – | 5000 | 2400 | CC(=O)N1CC(c2noc(C(c3ccc(F)cc3)N3C[C@H](C)N(c4cc(=O)n(C)c5ccc(C#N)nc45)C[C@H]3C)n2)C1 (single isomer, unassigned) [Example 1296] | 20000 | –
38 | – | – | 680 | 75 | CC(c1ccc(OC(F)(F)F)cc1)N1C[C@H](CO)N(c2cc(=O)n(C)c3ccc(C#N)nc23)C[C@H]1C (single isomer, unassigned) [Example 1419] | 1100 | –
39 | – | – | 15 | 2200 | CC(c1ccc2c(c1)OCCO2)N1C[C@H](C)N(c2cc(=O)n(C)c3ccc(C#N)nc23)C[C@H]1C (single isomer, unassigned) [Example 1258] | 2600 | –
